By AC50 is commonly meant the midpoint of the concentration-response curve, whichever way the signal moves. What is called EC50 is the concentration needed to bring the measured effect to its halfway point.

These results are taken from ChEMBL document CHEMBL1201862, “PubChem BioAssay data set” (2004).

Experiment [1] in a line: human group III sPLA2 inhibitors, dose response, biochemical, QFRET, IC50 (AID 743457).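 Note: green fluorescence rise as the enzyme cleaves BODIPY PC-A2 in liposomes; potency for inhibition of the enzyme.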
The nature of experiment [2]: cytotoxicity in HeLa cells, dose response, cytotoxicity control, cell-based, 24 h, dry powder, set 2 (AID 651774). Type of experiment: functional.
The nature of experiment [3]: HEK293T cytotoxicity, dose response, cytotoxicity control for miR-122 modulator project, cell-based, inhibitor set, cherry-pick, set 2 (AID 720697). Type of experiment: functional.
The target of experiment [4] is NAD-dependent protein deacylase sirtuin-5, mitochondrial (Homo sapiens, UniProt Q9NXA8). Nature of the experiment: SIRT5 deacylase inhibitors, dose response, biochemical, fluorescence imaging, cherry-pick, set 6 (AID 720597).
Experiment [5] is described as follows: ADAM10 inhibitors, peptide cleavage, dose response, biochemical, QFRET (AID 743254).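 Note: ADAM10 enzyme with the DM2 quenched FRET peptide as substrate; EDANS fluorescence gain as the protease cuts the substrate; inhibitor potency against ADAM10 proteolytic activity.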
For experiment [6], the target named is Disintegrin and metalloproteinase domain-containing protein 17 (Homo sapiens, UniProt P78536). Nature of the experiment: ADAM17 protease inhibitors, dose response, counter-screen for ADAM10 exosite inhibitor project, biochemical, quenched FRET substrate (AID 743253). In general terms: The purpose of a counterscreen is to sort out artefacts and off-target activity.

Experiment [7] is described as follows: cytotoxicity in MIN6 insulinoma cells, dose response, cytotoxicity control, cell-based, mouse insulinoma (AID 2122).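 Note: confirmatory high-throughput counterscreen run to flag cytotoxic compounds; mouse MIN-6 beta cells carrying an insulin promoter eGFP reporter.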 Type of experiment: functional.
Experiment [8] in a line: HEK293T cell cytotoxicity, dose response, cytotoxicity control, CellTiter-Glo luminescence, cherry-picked samples, set 4 (AID 743441). Type of experiment: functional, cell-based. The note with it: HEK293.
Experiment [9] can be described thus: Luminescence Cell-Based Dose Response HTS to Identify Activators of Luciferase Translation or Activity in H4 […] Cells. [Related pubchem assays: 1829 (Project Summary), 1814 (Primary HTS)]. It counts as functional.
The subject of the next experiment is H4. Nature of the experiment: Luminescence Cell-Based Dose Response HTS to Identify Activators of 5'UTR Stem-Loop Driven Prion Protein mRNA Translation in H4 Neuroglioblastoma Cells. [Related pubchem assays: 1829 (Project Summary), 1814 (Primary HTS)]. Type of experiment: functional. The note with it: Homo sapiens.
A further experiment concerns the target Protein Wnt-3a (Mus musculus, UniProt P27467). Put plainly: Wnt3a-driven reporter signaling inhibition, dose response, selectivity assay for Gli-SUFU antagonist project, Wnt-LIGHT cells, luminescence (AID 651570).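 Note: Wnt-LIGHT reporter cells stimulated with conditioned medium from Wnt3a-producing cells.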 It counts as functional. The note with it: read-out: IC50_Mean.
A short description of experiment [10]: insulin promoter down-regulators in MIN6 cells, imaging, high-content screening, mouse beta cells (AID 1628). Type of experiment: functional.
Experiment [11] can be described thus: NIH:OVCAR-3 ovarian cancer cell cytotoxicity, dose response, PAX8 inhibitor project, plate reader, dry powder samples (AID 743044). It counts as functional, cell-based.
Experiment [12] can be described thus: IGROV1 ovarian cancer cell cytotoxicity, dose response, PAX8 inhibitor project, plate reader, dry powder samples (AID 743043). Type of experiment: functional, cell-based. The note with it: IGROV-1.
A short description of experiment [13]: IOSE-T80 ovarian epithelial cell cytotoxicity, dose response, cytotoxicity control for PAX8 inhibitor project, plate reader, dry powder samples (AID 743045). Type of experiment: functional, cell-based.
Experiment [14] can be described thus: cytotoxicity in OVCAR8 ovarian cancer cells, dose response, PAX8 project, cell-based, plate reader, dry powder samples (AID 743197). It counts as functional. The note with it: OVCAR-8.
Another experiment addresses Paired box protein Pax-8 (Homo sapiens, UniProt Q06710). Put plainly: inhibitors of PAX8-driven TPO luciferase reporter, dose response, RMG-I cells, cherry-pick (AID 687027).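 Note: luciferase reporter driven by Pax8 target thyroperoxidase promoter measured by SteadyGlo luminescence.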 Type of experiment: functional, cell-based. On the technique in general: A reporter such as luciferase makes a cellular process visible.
Experiment [15] in a line: A2780 ovarian cancer cell cytotoxicity, dose response, cytotoxicity control, plate reader, dry powder samples (AID 743046). It counts as functional, cell-based.
The nature of another experiment: cells. The note with it: HEK293.
Another experiment relates to HeLa. Put plainly: HeLa cell cytotoxicity, dose response, cytotoxicity control for MITF activator project, CellTiter-Glo luminescence, cherry-pick samples (AID 540259). It counts as functional, cell-based. The note with it: Homo sapiens. (In general: ATP-based viability assays read luminescence as a measure of living cells.)
Experiment [16] in a line: HepG2 cell cytotoxicity, dose response, cytotoxicity control, ATP luminescence, cherry-pick, set 6 (AID 1053125). It counts as functional, cell-based.
Experiment [17] concerns the target T1, Methionyl-tRNA synthetase, putative (Trypanosoma brucei brucei, UniProt Q38C91).
T1 sequence (Q38C91 whole entry): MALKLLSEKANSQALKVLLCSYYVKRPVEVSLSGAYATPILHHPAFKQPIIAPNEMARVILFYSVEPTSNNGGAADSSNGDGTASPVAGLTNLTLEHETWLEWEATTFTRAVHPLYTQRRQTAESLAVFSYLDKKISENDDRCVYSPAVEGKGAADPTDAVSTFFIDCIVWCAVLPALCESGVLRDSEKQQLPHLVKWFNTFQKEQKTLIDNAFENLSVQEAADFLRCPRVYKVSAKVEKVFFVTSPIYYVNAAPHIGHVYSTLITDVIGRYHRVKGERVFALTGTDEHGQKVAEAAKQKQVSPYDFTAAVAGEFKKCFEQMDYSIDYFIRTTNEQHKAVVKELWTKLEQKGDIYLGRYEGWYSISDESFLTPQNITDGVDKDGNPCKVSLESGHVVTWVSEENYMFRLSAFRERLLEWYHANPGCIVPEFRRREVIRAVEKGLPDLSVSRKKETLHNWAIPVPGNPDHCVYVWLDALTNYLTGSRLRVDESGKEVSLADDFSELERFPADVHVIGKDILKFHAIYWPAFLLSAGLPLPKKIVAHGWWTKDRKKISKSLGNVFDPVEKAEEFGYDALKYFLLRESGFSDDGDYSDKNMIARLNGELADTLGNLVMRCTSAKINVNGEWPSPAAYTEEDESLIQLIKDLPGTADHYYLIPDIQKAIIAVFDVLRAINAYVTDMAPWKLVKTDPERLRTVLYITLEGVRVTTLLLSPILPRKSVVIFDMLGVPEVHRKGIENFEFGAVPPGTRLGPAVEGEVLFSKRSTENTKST
It counts as functional, Trypanosoma brucei brucei strain 927/4 GUTat10.1.

In experiment [18] the target is T1, Methionyl-tRNA synthetase, putative. Type of experiment: functional, Trypanosoma brucei brucei strain 927/4 GUTat10.1. The source holds these as a separate data set.
Experiment [19] in a line: Late stage counterscreen for inhibitors of Trypanosoma brucei methionyl tRNA synthetase (MetRS): Luminescence-based cell-based high throughput dose response assay to identify compounds that are cytotoxic to Jurkat human T lymphocyte cells. It counts as functional.
Experiment [20] can be described thus: Counterscreen for inhibitors of Trypanosoma brucei methionyl tRNA synthetase (MetRS): Luminescence-based cell-based high throughput dose response assay to identify compounds that are cytotoxic to Jurkat human T lymphocyte cells. It counts as functional.
The next experiment addresses Kallikrein-7 (Homo sapiens, UniProt P49862). Nature of the experiment: Fluorescence Intensity-based biochemical primary high throughput dose response assay to identify activators of kallikrein-7 (K7) zymogen.

Active and inactive are the calls of the source.

Sequence of Paired box protein Pax-8 (Q06710 whole entry): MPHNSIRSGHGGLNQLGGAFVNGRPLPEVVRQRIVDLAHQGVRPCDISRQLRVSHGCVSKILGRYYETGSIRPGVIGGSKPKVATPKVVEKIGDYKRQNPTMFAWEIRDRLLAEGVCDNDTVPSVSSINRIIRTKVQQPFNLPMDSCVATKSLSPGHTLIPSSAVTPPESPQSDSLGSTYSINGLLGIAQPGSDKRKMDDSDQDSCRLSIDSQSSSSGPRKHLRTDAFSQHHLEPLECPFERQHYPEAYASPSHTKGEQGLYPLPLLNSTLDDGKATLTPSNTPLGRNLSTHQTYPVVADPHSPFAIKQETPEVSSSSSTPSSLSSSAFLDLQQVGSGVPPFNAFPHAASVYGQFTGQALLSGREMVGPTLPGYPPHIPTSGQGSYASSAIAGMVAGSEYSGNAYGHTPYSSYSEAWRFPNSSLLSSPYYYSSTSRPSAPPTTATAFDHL
Sequence of Protein Wnt-3a (P27467 whole entry): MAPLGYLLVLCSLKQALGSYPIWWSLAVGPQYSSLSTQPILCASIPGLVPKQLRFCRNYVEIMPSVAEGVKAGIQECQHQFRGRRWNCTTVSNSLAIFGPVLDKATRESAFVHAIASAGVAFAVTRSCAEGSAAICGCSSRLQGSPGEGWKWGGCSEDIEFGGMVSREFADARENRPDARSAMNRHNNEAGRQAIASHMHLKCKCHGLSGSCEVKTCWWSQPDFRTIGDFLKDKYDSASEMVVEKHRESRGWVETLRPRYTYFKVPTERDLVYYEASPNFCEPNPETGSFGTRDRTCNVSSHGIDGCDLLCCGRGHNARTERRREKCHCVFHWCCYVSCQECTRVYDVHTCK
Sequence of NAD-dependent protein deacylase sirtuin-5, mitochondrial (Q9NXA8 whole entry): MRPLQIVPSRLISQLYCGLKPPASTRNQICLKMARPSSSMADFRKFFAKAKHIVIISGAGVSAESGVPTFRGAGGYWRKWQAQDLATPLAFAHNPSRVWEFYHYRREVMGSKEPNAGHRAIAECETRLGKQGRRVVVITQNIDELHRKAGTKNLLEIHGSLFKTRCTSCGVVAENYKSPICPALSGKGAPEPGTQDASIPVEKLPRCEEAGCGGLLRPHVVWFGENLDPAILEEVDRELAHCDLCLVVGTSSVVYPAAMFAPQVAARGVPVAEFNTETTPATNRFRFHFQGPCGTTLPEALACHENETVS
Sequence of Disintegrin and metalloproteinase domain-containing protein 17 (P78536 whole entry, the tested form may be a part): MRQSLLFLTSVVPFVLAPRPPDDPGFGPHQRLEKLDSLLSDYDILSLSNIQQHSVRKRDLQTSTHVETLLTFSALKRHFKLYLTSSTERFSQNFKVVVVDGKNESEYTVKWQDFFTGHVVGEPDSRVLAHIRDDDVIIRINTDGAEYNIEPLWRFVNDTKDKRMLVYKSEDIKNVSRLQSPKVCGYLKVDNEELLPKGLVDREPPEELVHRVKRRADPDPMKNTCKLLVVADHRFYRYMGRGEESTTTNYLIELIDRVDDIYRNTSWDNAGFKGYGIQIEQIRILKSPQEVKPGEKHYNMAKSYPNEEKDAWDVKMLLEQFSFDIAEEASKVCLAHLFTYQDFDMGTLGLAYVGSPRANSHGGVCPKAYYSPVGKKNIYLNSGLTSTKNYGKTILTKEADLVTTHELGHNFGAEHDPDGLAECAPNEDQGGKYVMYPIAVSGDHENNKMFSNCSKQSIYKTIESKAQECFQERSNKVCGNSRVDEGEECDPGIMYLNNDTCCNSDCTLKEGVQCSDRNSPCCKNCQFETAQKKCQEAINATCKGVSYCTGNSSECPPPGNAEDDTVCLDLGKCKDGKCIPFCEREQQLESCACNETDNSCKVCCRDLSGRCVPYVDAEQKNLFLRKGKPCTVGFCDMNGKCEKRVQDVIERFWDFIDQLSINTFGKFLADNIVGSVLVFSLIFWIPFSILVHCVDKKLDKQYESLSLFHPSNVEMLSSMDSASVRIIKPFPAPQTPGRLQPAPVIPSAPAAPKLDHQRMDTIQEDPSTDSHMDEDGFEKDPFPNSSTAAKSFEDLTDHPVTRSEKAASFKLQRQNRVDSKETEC
Sequence of Kallikrein-7 (P49862 whole entry): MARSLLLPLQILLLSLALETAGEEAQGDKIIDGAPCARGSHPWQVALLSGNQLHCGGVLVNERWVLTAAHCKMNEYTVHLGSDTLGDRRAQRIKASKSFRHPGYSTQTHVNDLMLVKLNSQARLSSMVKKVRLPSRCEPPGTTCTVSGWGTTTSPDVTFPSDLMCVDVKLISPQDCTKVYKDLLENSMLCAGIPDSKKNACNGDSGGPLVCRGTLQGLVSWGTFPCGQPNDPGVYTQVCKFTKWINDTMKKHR

`CCCCn1c(S)nnc1C12CC3CC(CC(C3)C1)C2`: in [1], the IC50 is > 122 µM (inactive).
As to `CCc1ccc(C(=O)Nc2nnnn2CC)cc1`, the AC50 in experiment [2] is > 70 µM (inactive).
Take `CC(=O)N1[C@H](CN(C(=O)c2ccc(F)cc2)C(C)C)[C@H](c2ccccc2)[C@@H]1CO`: the AC50 in [3] is 10.5 µM (active).
With `COc1ccc(S(=O)(=O)Nc2ccc3c(c2)CC(=O)N([C@H](C)CO)C[C@@H](C)[C@@H](CN(C)Cc2ccc(C(F)(F)F)cc2)O3)cc1`, the AC50 in experiment [4] is > 30 µM (inactive).
As to `O=S(=O)(NCC(Nc1ccc(Cl)cc1)c1ccccc1)c1ccccc1` (stereo unspecified), the IC50 in experiment [5] is 11.4 µM (inactive); in [6], > 69.5 µM (inactive).
Consider `COc1ccc(Cn2c(-c3ccc(Cl)cc3)c[n+]3ccccc23)cc1`, for which the values for the IC50 (in experiment [7]; at Protein Wnt-3a; in [10]) were 1.02 µM (active), 36.9 µM (inactive) and 1.35 µM (active), respectively. In experiment [8], the AC50 was 39.3 µM (active). Besides, the EC50 (in [9]; with H4) was > 120 µM (not active) in each case.
In the case of `C[C@@H]1CCCCO[C@H](CN(C)Cc2ccncc2)[C@H](C)CN([C@@H](C)CO)C(=O)c2cc(NC(=O)NC3CCCCC3)ccc2O1`, the AC50 was 18.7 µM (active) in [11]; 25.5 µM (active) in experiment [12]; 36.7 µM (active) in experiment [13]; 68.3 µM (active) in experiment [14]; 11.3 µM (active) on Paired box protein Pax-8; 36.1 µM (active) in experiment [15].
Take `Nc1ccc(C#Cc2ccc3c(=O)c4ccccc4oc3c2)cc1`: the AC50 is > 52 µM (inactive) in “cells”, 59.6 µM (active) with HeLa and > 52 µM (inactive) in experiment [16].
For `CC(=O)c1ccc(N2CCN(C(=O)CCCn3c(=O)[nH]c4ccc(Br)cc4c3=O)CC2)cc1`, the IC50 in [17] is 0.579 µM (active); in [18], 1.48 µM (active); in [19], 25.9 µM (inactive); in [20], 53.2 µM (inactive).
Turning to `COC(=O)c1ccc(N2C(c3cc(OC)cc(OC)c3)=Cc3ccc(-c4cccnc4)cc3C2CC(=O)C2CC2)cc1` (stereo unspecified), the EC50 on Kallikrein-7 was 38.9 µM (inactive).
